The target in data set [1] is T1, CYP11B1 (Homo sapiens, UniProt P15538).
T1 sequence (P15538 whole entry): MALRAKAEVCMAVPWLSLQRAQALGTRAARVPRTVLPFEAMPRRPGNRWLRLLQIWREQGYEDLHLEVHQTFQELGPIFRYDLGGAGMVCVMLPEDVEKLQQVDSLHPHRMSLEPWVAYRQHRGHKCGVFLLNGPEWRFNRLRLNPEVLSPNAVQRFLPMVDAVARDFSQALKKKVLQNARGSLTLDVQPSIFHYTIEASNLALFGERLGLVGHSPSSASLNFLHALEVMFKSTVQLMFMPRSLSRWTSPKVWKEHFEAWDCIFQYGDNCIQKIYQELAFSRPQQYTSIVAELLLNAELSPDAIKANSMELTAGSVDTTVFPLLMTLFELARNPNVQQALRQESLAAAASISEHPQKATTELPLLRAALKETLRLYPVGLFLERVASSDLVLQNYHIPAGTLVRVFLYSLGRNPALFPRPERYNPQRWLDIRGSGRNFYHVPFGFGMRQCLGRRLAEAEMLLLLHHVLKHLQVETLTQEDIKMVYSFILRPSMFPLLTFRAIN
Kind of data set: Inhibition of human CYP11B1 expressed in hamster V79MZh cells using deoxycorticosterone as substrate at 500 nM. In kind it is cell-based. As to conditions: hamster V79MZh cells expressing human CYP11B1, probe deoxycorticosterone.

Data set [2] addresses T2, Cytochrome P450 11B2, mitochondrial (Homo sapiens, UniProt P19099).
T2 sequence (P19099 whole entry): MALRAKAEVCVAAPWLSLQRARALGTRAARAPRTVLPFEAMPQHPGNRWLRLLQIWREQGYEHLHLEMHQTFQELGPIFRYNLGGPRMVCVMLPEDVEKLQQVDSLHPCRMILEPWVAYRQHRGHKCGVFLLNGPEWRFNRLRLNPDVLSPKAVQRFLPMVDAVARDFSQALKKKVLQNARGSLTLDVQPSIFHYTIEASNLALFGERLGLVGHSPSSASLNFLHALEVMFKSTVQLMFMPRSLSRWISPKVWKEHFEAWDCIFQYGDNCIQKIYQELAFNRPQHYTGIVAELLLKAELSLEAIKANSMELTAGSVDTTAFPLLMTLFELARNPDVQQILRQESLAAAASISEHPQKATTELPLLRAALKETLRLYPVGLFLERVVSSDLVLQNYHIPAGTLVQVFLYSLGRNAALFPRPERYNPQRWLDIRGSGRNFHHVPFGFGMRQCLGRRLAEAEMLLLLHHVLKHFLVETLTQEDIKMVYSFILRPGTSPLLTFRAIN

Data set [3] concerns the target T3, Cytochrome P450 11B1, mitochondrial (Homo sapiens, UniProt P15538).
T3 sequence (P15538 whole entry): T1 sequence (P15538 whole entry)

The target in data set [4] is T2, Cytochrome P450 11B2, mitochondrial. Kind of data set: Inhibition of human CYP11B2 expressed in hamster V79MZh cells using deoxycorticosterone as substrate at 500 nM. In kind it is cell-based.
Data set [5] in a line: Half life in human liver microsomes at 1 uM by LC-MS/MS analysis. For orientation: Microsomes from liver hold many membrane-bound enzymes, among them those of drug oxidation.
The target in data set [6] is Cytochrome P450 2C9 (Homo sapiens, UniProt P11712). Kind of data set: Inhibition of CYP2C9 using recombinant human CYP enzyme at a single time point by LC-MS/MS analysis.
Data set [7] is described as follows: Intrinsic clearance in human liver microsomes at 1 uM by LC-MS/MS analysis. As to conditions: read-out: CLH.
In data set [8] the target is Cytochrome P450 2D6 (Homo sapiens, UniProt P10635). The experiment in a line: Inhibition of CYP2D6 using recombinant human CYP enzyme at a single time point by LC-MS/MS analysis.
Data set [9] concerns the target Cytochrome P450 2C19 (Homo sapiens, UniProt P33261). Kind of data set: Inhibition of CYP2C19 using recombinant human CYP enzyme at a single time point by LC-MS/MS analysis.
In data set [10] the target is Cytochrome P450 3A4 (Homo sapiens, UniProt P08684). Kind of data set: Inhibition of CYP3A4 using recombinant human CYP enzyme at a single time point by LC-MS/MS analysis.
Data set [11] deals with T4, CYP17 (Homo sapiens, UniProt P05093).
T4 sequence (P05093 whole entry): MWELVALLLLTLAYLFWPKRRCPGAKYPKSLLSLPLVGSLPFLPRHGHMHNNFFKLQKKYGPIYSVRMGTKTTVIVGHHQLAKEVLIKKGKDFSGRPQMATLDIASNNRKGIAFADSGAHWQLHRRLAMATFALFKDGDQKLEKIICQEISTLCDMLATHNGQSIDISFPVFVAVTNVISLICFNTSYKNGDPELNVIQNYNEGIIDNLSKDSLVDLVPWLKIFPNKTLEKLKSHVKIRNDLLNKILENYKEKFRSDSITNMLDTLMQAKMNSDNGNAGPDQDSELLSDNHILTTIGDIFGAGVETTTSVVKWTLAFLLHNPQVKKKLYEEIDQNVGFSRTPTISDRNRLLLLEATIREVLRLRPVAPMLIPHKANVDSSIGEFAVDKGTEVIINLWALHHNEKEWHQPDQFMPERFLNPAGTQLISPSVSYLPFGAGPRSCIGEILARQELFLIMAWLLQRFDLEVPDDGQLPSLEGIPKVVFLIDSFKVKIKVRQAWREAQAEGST
The experiment in a line: Inhibition of human CYP17 expressed in Escherichia coli co-expressing NADPH-P450 reductase at 2 uM using progesterone as substrate. Particulars: probe progesterone.

The target in data set [12] is T5, CYP19 (Homo sapiens, UniProt P11511).
T5 sequence (P11511 whole entry): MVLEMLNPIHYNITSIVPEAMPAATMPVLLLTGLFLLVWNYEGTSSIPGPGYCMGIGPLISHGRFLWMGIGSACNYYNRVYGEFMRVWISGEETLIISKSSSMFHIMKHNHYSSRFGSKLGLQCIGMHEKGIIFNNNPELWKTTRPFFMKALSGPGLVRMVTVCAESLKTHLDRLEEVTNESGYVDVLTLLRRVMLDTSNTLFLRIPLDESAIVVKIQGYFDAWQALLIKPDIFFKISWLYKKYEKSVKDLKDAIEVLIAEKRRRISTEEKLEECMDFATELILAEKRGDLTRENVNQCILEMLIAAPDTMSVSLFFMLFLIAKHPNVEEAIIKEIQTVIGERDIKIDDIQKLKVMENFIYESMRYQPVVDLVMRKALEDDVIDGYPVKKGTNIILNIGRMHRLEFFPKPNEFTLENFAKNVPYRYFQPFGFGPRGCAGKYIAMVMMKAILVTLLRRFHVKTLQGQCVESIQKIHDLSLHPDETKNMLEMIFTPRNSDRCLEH
Kind of data set: Inhibition of CYP19 in human placental microsomes at 500 nM using [1beta-3H]androstenedione as substrate. Particulars: probe [1beta-3H]androstenedione. Set-up: species or system Placenta.

Data set [13] addresses T6, Cytochrome P450 1A2 (Homo sapiens, UniProt P05177).
T6 sequence (P05177 whole entry): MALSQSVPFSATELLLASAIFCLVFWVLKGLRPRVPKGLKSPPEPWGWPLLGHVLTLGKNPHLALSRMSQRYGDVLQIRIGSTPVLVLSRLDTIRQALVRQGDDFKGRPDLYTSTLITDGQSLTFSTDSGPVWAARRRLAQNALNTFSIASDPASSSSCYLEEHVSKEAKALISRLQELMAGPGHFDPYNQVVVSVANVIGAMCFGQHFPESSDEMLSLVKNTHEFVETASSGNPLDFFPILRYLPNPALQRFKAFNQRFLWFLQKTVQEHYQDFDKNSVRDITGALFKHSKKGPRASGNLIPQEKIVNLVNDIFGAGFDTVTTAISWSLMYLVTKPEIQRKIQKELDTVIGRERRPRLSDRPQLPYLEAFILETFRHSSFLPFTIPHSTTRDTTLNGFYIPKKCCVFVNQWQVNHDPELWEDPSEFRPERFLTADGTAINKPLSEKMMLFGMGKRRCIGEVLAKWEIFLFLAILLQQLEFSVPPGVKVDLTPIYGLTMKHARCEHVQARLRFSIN
The experiment in a line: Inhibition of CYP1A2 using recombinant human CYP enzyme at a single time point by LC-MS/MS analysis.

Structures are written as SMILES.

This note sets out measurements from ChEMBL document CHEMBL3286158, “Novel pyridyl- or isoquinolinyl-substituted indolines and indoles as potent and selective aldosterone synthase inhibitors” (J Med Chem, 2014).

As usually defined, the inhibition is the relative decrease from the control value, in per cent. Read a low inhibition as a response near the control. Broadly, the IC50 is the concentration at which inhibition is half-maximal. Usually half-life stands for the time in which the quantity being followed falls by half.

Sequence of Cytochrome P450 3A4 (P08684 whole entry): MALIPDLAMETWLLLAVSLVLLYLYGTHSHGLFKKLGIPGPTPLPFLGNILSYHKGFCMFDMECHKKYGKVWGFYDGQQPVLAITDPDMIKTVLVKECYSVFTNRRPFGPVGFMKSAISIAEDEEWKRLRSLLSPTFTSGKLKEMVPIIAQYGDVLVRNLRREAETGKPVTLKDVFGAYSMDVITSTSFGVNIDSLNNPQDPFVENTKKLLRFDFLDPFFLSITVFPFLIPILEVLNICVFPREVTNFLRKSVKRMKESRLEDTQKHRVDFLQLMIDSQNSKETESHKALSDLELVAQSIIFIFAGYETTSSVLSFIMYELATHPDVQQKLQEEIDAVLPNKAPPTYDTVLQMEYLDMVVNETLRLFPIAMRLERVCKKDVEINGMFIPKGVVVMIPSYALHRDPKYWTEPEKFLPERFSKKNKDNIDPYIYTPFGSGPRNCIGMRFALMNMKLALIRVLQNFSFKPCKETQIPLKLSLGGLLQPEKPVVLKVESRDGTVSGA
Sequence of Cytochrome P450 2C9 (P11712 whole entry): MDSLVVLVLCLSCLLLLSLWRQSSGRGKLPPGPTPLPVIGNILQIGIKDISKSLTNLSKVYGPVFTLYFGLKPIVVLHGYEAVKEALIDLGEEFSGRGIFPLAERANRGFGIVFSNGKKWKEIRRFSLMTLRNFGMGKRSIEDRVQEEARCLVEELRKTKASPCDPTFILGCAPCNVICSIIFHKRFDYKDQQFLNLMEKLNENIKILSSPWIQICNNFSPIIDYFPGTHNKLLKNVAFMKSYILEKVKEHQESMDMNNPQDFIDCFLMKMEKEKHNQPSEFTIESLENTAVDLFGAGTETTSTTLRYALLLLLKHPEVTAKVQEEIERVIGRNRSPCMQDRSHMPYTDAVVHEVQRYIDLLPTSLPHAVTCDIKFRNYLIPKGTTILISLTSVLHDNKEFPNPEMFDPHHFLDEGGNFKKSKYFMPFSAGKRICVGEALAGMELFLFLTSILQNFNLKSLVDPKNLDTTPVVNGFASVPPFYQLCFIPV
Sequence of Cytochrome P450 2D6 (P10635 whole entry): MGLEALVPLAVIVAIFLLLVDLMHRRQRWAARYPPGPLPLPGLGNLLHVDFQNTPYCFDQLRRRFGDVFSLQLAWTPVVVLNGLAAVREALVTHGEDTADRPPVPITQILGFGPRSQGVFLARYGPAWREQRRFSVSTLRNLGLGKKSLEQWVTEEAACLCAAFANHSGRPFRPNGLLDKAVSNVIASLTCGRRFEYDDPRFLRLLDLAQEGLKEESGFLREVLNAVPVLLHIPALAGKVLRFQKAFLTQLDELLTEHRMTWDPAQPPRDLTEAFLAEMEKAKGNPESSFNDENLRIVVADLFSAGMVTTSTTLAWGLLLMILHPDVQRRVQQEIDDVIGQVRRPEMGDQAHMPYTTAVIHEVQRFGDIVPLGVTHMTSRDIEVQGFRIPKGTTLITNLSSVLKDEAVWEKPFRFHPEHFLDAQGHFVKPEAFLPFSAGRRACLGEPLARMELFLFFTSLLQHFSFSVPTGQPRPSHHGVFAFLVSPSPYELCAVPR
Sequence of Cytochrome P450 2C19 (P33261 whole entry): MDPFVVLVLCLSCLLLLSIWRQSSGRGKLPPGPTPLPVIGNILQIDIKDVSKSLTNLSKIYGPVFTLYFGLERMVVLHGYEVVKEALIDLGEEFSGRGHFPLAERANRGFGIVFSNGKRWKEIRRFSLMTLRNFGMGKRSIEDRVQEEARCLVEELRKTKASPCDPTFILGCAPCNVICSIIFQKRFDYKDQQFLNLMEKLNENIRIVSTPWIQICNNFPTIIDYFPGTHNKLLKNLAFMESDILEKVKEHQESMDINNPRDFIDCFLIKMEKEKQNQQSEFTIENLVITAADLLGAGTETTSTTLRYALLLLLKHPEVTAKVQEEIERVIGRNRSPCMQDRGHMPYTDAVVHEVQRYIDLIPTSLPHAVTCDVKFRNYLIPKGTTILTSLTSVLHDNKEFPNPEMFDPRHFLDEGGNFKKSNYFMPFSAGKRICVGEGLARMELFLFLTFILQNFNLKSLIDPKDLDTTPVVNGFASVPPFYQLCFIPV

Consider `O=C(CCCl)N1CCc2cc(-c3cccnc3)ccc21`, for which the inhibition in data set [1] was found to be 6%; in data set [4], 7%. Moreover, the IC50 was > 5000 nM in data set [2] and > 5 µM in data set [3].

Consider `CC(=O)N1CCc2cc(-c3cnccc3C)ccc21`, for which the inhibition in [1] came to 70%; in [4], 100%. The half-life in data set [5] is 17 min. The IC50 in data set [6], in data set [8], in data set [9], in data set [10] and in data set [13] was > 50 µM throughout. In data set [7], the microsomal CLint stood at 81 µL/min/mg. Also, the inhibition at 2 µM in [11] was < 7%. Also, the inhibition at 0.5 µM in data set [12] is < 7%.

Take `CCC(=O)N1CCc2cc(-c3cncc4ccccc34)ccc21`: the inhibition was determined as 39% in data set [1] and 100% in [4]. This molecule displayed a half-life in [5] of 15 min. Also, the IC50 in data set [6], in data set [8], in data set [9], in data set [10] and in data set [13] was > 50 µM in each case. Further, the microsomal CLint in [7] came to 91 µL/min/mg. In addition, the inhibition at 2 µM in [11] is < 7%. Moreover, the inhibition at 0.5 µM in data set [12] is < 7%.

Take `COc1cncc(-c2ccc3c(c2)CCN3C(C)=O)c1`: the inhibition in data set [1] is 48%; in data set [4] it was 100%. In data set [11], the inhibition at 2 µM was < 7%. Besides, in [12], the inhibition at 0.5 µM was < 7%.

For `CCC(=O)N1CCc2cc(-c3cccnc3)ccc21`, the inhibition came to 0.8% in [1] and 66% in data set [4]. Moreover, the inhibition at 2 µM in data set [11] is < 7%. Also, the inhibition at 0.5 µM in data set [12] is < 7%.

Consider `CC(C)C(=O)N1CCc2cc(-c3cncc4ccccc34)ccc21`, for which the inhibition in data set [1] is 11%; in [4], 90%. Also, the concentration for half-maximal inhibition (IC50) in data set [2] stood at 152 nM; in data set [3], 6.09 µM. Further, the inhibition at 2 µM in data set [11] is < 7%. In addition, the inhibition at 0.5 µM in data set [12] is < 7%.

Turning to `CC(=O)n1ccc2cc(-c3cccnc3)ccc21`, the inhibition in data set [1] worked out at 25%; in data set [4], 98%. Besides, in [11], the inhibition at 2 µM was < 7%. For the same molecule, the inhibition at 0.5 µM in [12] was < 7%.

Consider `COc1ccc(C(=O)N2CCc3cc(-c4cccnc4)ccc32)cc1`, for which the values for the inhibition in data set [1] and in data set [4] were 1.6% and 26%, respectively. Also, the half-inhibitory concentration (IC50) in data set [3] was > 5 µM.

For `CC(=O)N1CCc2cc(-c3cncc(F)c3)ccc21`, the inhibition in data set [1] was 11%; in data set [4] it was 93%. Moreover, the half-inhibitory concentration (IC50) amounted to 61 nM in [2] and 6.81 µM in data set [3]. Besides, the inhibition at 2 µM in data set [11] is < 7%. Moreover, the inhibition at 0.5 µM in data set [12] is < 7%.

For the molecule `O=C(C1CC1)N1CCc2cc(-c3cncc4ccccc34)ccc21`, the inhibition in data set [1] stood at 29%; in data set [4] it was 98%. Besides, the IC50 in data set [2] was 30 nM; in [3], 3.72 µM. Besides, the inhibition at 2 µM in [11] is < 7%. The inhibition at 0.5 µM in [12] was < 7%.

`O=C1CCc2cc(-c3cccnc3)cc3c2N1CC3` displayed a half-life in data set [5] of 9 min.

Take `O=C(Cc1ccccc1)N1CCc2cc(-c3cccnc3)ccc21`: the inhibition in [1] is 26%; in data set [4], 2.2%. Moreover, the IC50 in data set [2] is > 5000 nM; in data set [3] it was 1.52 µM.
